Drawing on PubChem BioAssay AID1259407 (Chemical Carcinogenesis Research Information System (CCRIS), 2018), this text covers mutagenic call for seven compounds.

Each structure is given as a SMILES string. Active and inactive are the calls of the source. How the calls were made is not given here.

For this series, the system named is CCRIS mutagenicity, Ames/micronucleus/aberration tests. In words: CCRIS mutagenicity studies.
The mark [1] stands for this setting: Test System: AMES SALMONELLA TYPHIMURIUM, Strain/Indicator: TA98, Metabolic Activation: RAT, LIVER, S-9, AROCLOR 1254, Method: PREINCUBATION
The mark [2] stands for this setting: Test System: AMES SALMONELLA TYPHIMURIUM, Strain/Indicator: TA100, Metabolic Activation: RAT, LIVER, S-9, AROCLOR 1254, Method: PREINCUBATION
Where [3] appears, read: Test System: AMES SALMONELLA TYPHIMURIUM, Strain/Indicator: TA98, Metabolic Activation: NONE, Method: STANDARD PLATE.
The mark [4] stands for this setting: Test System: AMES SALMONELLA TYPHIMURIUM, Strain/Indicator: TA98, Metabolic Activation: RAT, LIVER, S-9, AROCLOR 1254, Method: STANDARD PLATE.
Where [5] appears, read: Test System: AMES SALMONELLA TYPHIMURIUM, Strain/Indicator: TA100, Metabolic Activation: NONE, Method: STANDARD PLATE.
The mark [6] stands for this setting: Test System: AMES SALMONELLA TYPHIMURIUM, Strain/Indicator: TA100, Metabolic Activation: RAT, LIVER, S-9, AROCLOR 1254, Method: STANDARD PLATE.
The mark [7] stands for this setting: Test System: AMES SALMONELLA TYPHIMURIUM, Strain/Indicator: TA1535, Metabolic Activation: NONE, Method: STANDARD PLATE.
The mark [8] stands for this setting: Test System: AMES SALMONELLA TYPHIMURIUM, Strain/Indicator: TA1535, Metabolic Activation: RAT, LIVER, S-9, AROCLOR 1254, Method: STANDARD PLATE.
The mark [9] stands for this setting: Test System: AMES SALMONELLA TYPHIMURIUM, Strain/Indicator: TA1537, Metabolic Activation: NONE, Method: STANDARD PLATE.
The mark [10] stands for this setting: Test System: AMES SALMONELLA TYPHIMURIUM, Strain/Indicator: TA1537, Metabolic Activation: RAT, LIVER, S-9, AROCLOR 1254, Method: STANDARD PLATE.

As to `Cc1c(N)nc(C)c2c1[nH]c1ccccc12`, the mutagenic call by setting is: (Test System: AMES SALMONELLA TYPHIMURIUM, Strain/Indicator: TA98, Metabolic Activation: HUMAN, BLOOD, CYTOSOL, Method: PREINCUBATION) “active; positive”; (Test System: AMES SALMONELLA TYPHIMURIUM, Strain/Indicator: TA98, Metabolic Activation: MONKEY, LIVER, S-9, Method: PREINCUBATION) “active; positive”; (Test System: AMES SALMONELLA TYPHIMURIUM, Strain/Indicator: TA98, Metabolic Activation: MOUSE, LIVER, MICROSOMES, TCDD, Method: STANDARD PLATE) “active; positive”; (Test System: AMES SALMONELLA TYPHIMURIUM, Strain/Indicator: TA98, Metabolic Activation: MOUSE, LIVER, MICROSOMES, Method: STANDARD PLATE) “active; positive”; (Test System: AMES SALMONELLA TYPHIMURIUM, Strain/Indicator: TA98, Metabolic Activation: RAT, BLADDER, S-9, PCB, Method: FLUCTUATION TEST) “active; positive”; (Test System: AMES SALMONELLA TYPHIMURIUM, Strain/Indicator: TA98, Metabolic Activation: RAT, HEPATOCYTES, AROCLOR 1254, Method: PREINCUBATION) “active; positive”. Further, the mutagenic call was “active; positive” under setting [1]; “active; positive” (Test System: AMES SALMONELLA TYPHIMURIUM, Strain/Indicator: TA100, Metabolic Activation: RAT, BLADDER, S-9, PCB, Method: FLUCTUATION TEST); “inactive; negative” under setting [2]; “active; positive” (Test System: AMES SALMONELLA TYPHIMURIUM, Strain/Indicator: YG1019, Metabolic Activation: RAT LIVER S-9, AROCLOR, Method: PREINCUBATION); “active; positive” (Test System: CHINESE HAMSTER V-79, Strain/Indicator: V-79/8-AZAGUANINE, Metabolic Activation: NONE, Method: SUSPENSION/PLATE); “active; positive” (Test System: CHINESE HAMSTER V-79, Strain/Indicator: V-79/8-AZAGUANINE, Metabolic Activation: S-9, Method: SUSPENSION/PLATE). The mutagenic call by setting is: (Test System: CHINESE HAMSTER V-79, Strain/Indicator: V-79/OUABAIN, Metabolic Activation: NONE, Method: SUSPENSION/PLATE) “inactive; negative”; (Test System: CHINESE HAMSTER V-79, Strain/Indicator: V-79/OUABAIN, Metabolic Activation: S-9, Method: SUSPENSION/PLATE) “inactive; negative”; (Test System: UDS HAMSTER HEPATOCYTES, Strain/Indicator: THY INCORP, Metabolic Activation: NONE, Method: LIQUID SCINTILLATION COUNTING) “active; positive”; (Test System: UDS HUMAN HEPATOCYTES, Strain/Indicator: THY INCORP, Metabolic Activation: NONE, Method: AUTORADIOGRAPHY) “active; positive”; (Test System: UDS MOUSE HEPATOCYTES, Strain/Indicator: THY INCORP, Metabolic Activation: NONE, Method: AUTORADIOGRAPHY) “active; positive”; (Test System: UDS RAT HEPATOCYTES, Strain/Indicator: THY INCORP, Metabolic Activation: NONE, Method: AUTORADIOGRAPHY) “inactive; negative”. Moreover, where the note is “Test System: UDS RAT HEPATOCYTES, Strain/Indicator: THY INCORP, Metabolic Activation: NONE, Method: LIQUID SCINTILLATION COUNTING”, the mutagenic call was “inactive; negative”.
`CCS(=O)(=O)n1ncc(Cl)c(Cl)c1=O`: the mutagenic call by setting is: under setting [3], “inactive; negative”; under setting [4], “inactive; negative”; under setting [5], “active; positive”; under setting [6], “active; positive”; under setting [7], “inactive; negative”; under setting [8], “inactive; negative”. Further, the mutagenic call by setting is: under setting [9], “inactive; negative”; under setting [10], “inactive; negative”.
As to `O=[N+]([O-])N(c1ccccn1)S(=O)(=O)c1ccccc1`, the mutagenic call is “inactive; negative” (Test System: AMES SALMONELLA TYPHIMURIUM, Strain/Indicator: TA98, Metabolic Activation: NONE, Method: PREINCUBATION); “inactive; negative” under setting [1]; “inactive; negative” (Test System: AMES SALMONELLA TYPHIMURIUM, Strain/Indicator: TA100, Metabolic Activation: NONE, Method: PREINCUBATION); “inactive; negative” under setting [2].
For `c1ccc2sc(SN3CCOCC3)nc2c1`, the mutagenic call is “inactive; negative” under setting [3]; “inactive; negative” (Test System: AMES SALMONELLA TYPHIMURIUM, Strain/Indicator: TA98, Metabolic Activation: S-9, Method: STANDARD PLATE); “inactive; negative” under setting [5]; “inactive; negative” (Test System: AMES SALMONELLA TYPHIMURIUM, Strain/Indicator: TA100, Metabolic Activation: S-9, Method: STANDARD PLATE).
As to `Nc1ccc(S(=O)(=O)Nc2cnc3c(Cl)cccc3n2)cc1`, the mutagenic call is, setting by setting: (Test System: AMES SALMONELLA TYPHIMURIUM, Strain/Indicator: TA98, Metabolic Activation: HAMSTER, LIVER, S-9, AROCLOR 1254, Method: STANDARD PLATE) “inactive; negative”; under setting [3], “inactive; negative”; under setting [4], “inactive; negative”; (Test System: AMES SALMONELLA TYPHIMURIUM, Strain/Indicator: TA100, Metabolic Activation: HAMSTER, LIVER, S-9, AROCLOR 1254, Method: STANDARD PLATE) “inactive; negative”; under setting [5], “inactive; negative”; under setting [6], “inactive; negative”. In addition, the mutagenic call by setting is: (Test System: AMES SALMONELLA TYPHIMURIUM, Strain/Indicator: TA1535, Metabolic Activation: HAMSTER, LIVER, S-9, AROCLOR 1254, Method: STANDARD PLATE) “inactive; negative”; under setting [7], “inactive; negative”; under setting [8], “inactive; negative”; (Test System: AMES SALMONELLA TYPHIMURIUM, Strain/Indicator: TA1537, Metabolic Activation: HAMSTER, LIVER, S-9, AROCLOR 1254, Method: STANDARD PLATE) “inactive; negative”; under setting [9], “inactive; negative”; under setting [10], “inactive; negative”. The mutagenic call by setting is: (Test System: AMES SALMONELLA TYPHIMURIUM, Strain/Indicator: TA1538, Metabolic Activation: HAMSTER, LIVER, S-9, AROCLOR 1254, Method: STANDARD PLATE) “inactive; negative”; (Test System: AMES SALMONELLA TYPHIMURIUM, Strain/Indicator: TA1538, Metabolic Activation: NONE, Method: STANDARD PLATE) “inactive; negative”; (Test System: AMES SALMONELLA TYPHIMURIUM, Strain/Indicator: TA1538, Metabolic Activation: RAT, LIVER, S-9, AROCLOR 1254, Method: STANDARD PLATE) “inactive; negative”; (Test System: MOUSE LYMPHOMA, Strain/Indicator: L5178Y (TK+/TK-), Metabolic Activation: NONE, Method: SUSPENSION/PLATE) “inactive; negative. reevaluation of results: negative”; (Test System: MOUSE LYMPHOMA, Strain/Indicator: L5178Y (TK+/TK-), Metabolic Activation: RAT, LIVER, S-9, AROCLOR 1254, Method: SUSPENSION/PLATE) “inactive; negative. reevaluation of results: negative”.
Take `CC(=O)N1CCc2cc([N+](=O)[O-])ccc21`: the mutagenic call (End Point: IN VITRO CHROMOSOMAL ABERRATIONS, Test System: CHL CELLS, Metabolic Activation: RAT, LIVER, S-9, SODIUM PHENOBARBITAL AND 5,6-BENZOFLAVONE) was “inactive; negative”.
Take `COc1cc(NS(C)(=O)=O)ccc1Nc1c2ccccc2nc2cc(N=[N+]=[N-])ccc12`: under setting [9], the mutagenic call was “active; positive”.
